# Columns and labels:
# [1] = Inhibition of Staphylococcus aureus Gyrase B using linear pBR322 DNA as substrate incubated for 30 mins in presence of ATP by ADP-Glo assay
# [2] = test system: Staphylococcus aureus; test: Antibacterial activity against wild type methicillin-sensitive Staphylococcus aureus ATCC 29213 assessed as inhibition of bacterial growth incubated for 18 to 24 hrs by broth microdilution method; type: functional; conditions: time 18-24 hrs
# [3] = test system: Staphylococcus aureus; test: Antibacterial activity against methicillin-resistant Staphylococcus aureus clinical isolate 15-3 assessed as inhibition of bacterial growth incubated for 18 to 24 hrs by broth microdilution method; type: functional; conditions: time 18-24 hrs
# [4] = test system: Staphylococcus aureus; test: Antibacterial activity against methicillin-resistant Staphylococcus aureus clinical isolate 15-9 assessed as inhibition of bacterial growth incubated for 18 to 24 hrs by broth microdilution method; type: functional; conditions: time 18-24 hrs
# [5] = test system: Staphylococcus epidermidis; test: Antibacterial activity against methicillin-resistant Staphylococcus epidermidis clinical isolate 15-2 assessed as inhibition of bacterial growth incubated for 18 to 24 hrs by broth microdilution method; type: functional; conditions: time 18-24 hrs
# [6] = test system: Staphylococcus epidermidis; test: Antibacterial activity against methicillin-resistant Staphylococcus epidermidis clinical isolate 15-3 assessed as inhibition of bacterial growth incubated for 18 to 24 hrs by broth microdilution method; type: functional; conditions: time 18-24 hrs
# [7] = test system: Staphylococcus aureus; test: Antibacterial activity against methicillin-resistant Staphylococcus aureus clinical isolate 15-8 assessed as inhibition of bacterial growth incubated for 18 to 24 hrs by broth microdilution method; type: functional; conditions: time 18-24 hrs
# [8] = test system: Staphylococcus aureus; test: Antibacterial activity against methicillin-resistant Staphylococcus aureus clinical isolate 15-7 assessed as inhibition of bacterial growth incubated for 18 to 24 hrs by broth microdilution method; type: functional; conditions: time 18-24 hrs
# [9] = test system: Enterococcus faecalis; test: Antibacterial activity against vancomycin-resistant Enterococcus faecalis ATCC 51299 assessed as inhibition of bacterial growth incubated for 18 to 24 hrs by broth microdilution method; type: functional; conditions: time 18-24 hrs
# [10] = test system: Staphylococcus aureus; test: Antibacterial activity against methicillin resistant and vancomycin-intermediate sensitive Staphylococcus aureus ATCC 700699 assessed as inhibition of bacterial growth incubated for 18 to 24 hrs by broth microdilution method; type: functional; conditions: time 18-24 hrs
# [11] = test system: Staphylococcus aureus; test: Antibacterial activity against methicillin-resistant Staphylococcus aureus clinical isolate 15-1 assessed as inhibition of bacterial growth incubated for 18 to 24 hrs by broth microdilution method; type: functional; conditions: time 18-24 hrs
# [12] = test system: Enterococcus faecalis; test: Antibacterial activity against vancomycin-resistant Enterococcus faecalis ATCC 51575 assessed as inhibition of bacterial growth incubated for 18 to 24 hrs by broth microdilution method; type: functional; conditions: time 18-24 hrs
# [13] = test system: Enterococcus faecalis; test: Antibacterial activity against Enterococcus faecalis clinical isolate 15-2 assessed as inhibition of bacterial growth incubated for 18 to 24 hrs by broth microdilution method; type: functional; conditions: time 18-24 hrs
# [14] = test system: Enterococcus faecium; test: Antibacterial activity against Enterococcus faecium clinical isolate 15-2 assessed as inhibition of bacterial growth incubated for 18 to 24 hrs by broth microdilution method; type: functional; conditions: time 18-24 hrs
# [15] = test system: Staphylococcus aureus; test: Antibacterial activity against methicillin-resistant Staphylococcus aureus clinical isolate 15-6 assessed as inhibition of bacterial growth incubated for 18 to 24 hrs by broth microdilution method; type: functional; conditions: time 18-24 hrs
# [16] = test system: Staphylococcus aureus; test: Antibacterial activity against methicillin-resistant Staphylococcus aureus clinical isolate 15-2 assessed as inhibition of bacterial growth incubated for 18 to 24 hrs by broth microdilution method; type: functional; conditions: time 18-24 hrs
# [17] = test system: Enterococcus faecium; test: Antibacterial activity against Enterococcus faecium clinical isolate 15-1 assessed as inhibition of bacterial growth incubated for 18 to 24 hrs by broth microdilution method; type: functional; conditions: time 18-24 hrs
# [18] = test system: Staphylococcus aureus; test: Antibacterial activity against methicillin resistant and vancomycin-intermediate sensitive Staphylococcus aureus ATCC 700788 assessed as inhibition of bacterial growth incubated for 18 to 24 hrs by broth microdilution method; type: functional; conditions: time 18-24 hrs
# [19] = test system: Staphylococcus epidermidis; test: Antibacterial activity against methicillin-resistant Staphylococcus epidermidis clinical isolate 15-1 assessed as inhibition of bacterial growth incubated for 18 to 24 hrs by broth microdilution method; type: functional; conditions: time 18-24 hrs
# [20] = test system: Enterococcus faecalis; test: Antibacterial activity against Enterococcus faecalis clinical isolate 15-1 assessed as inhibition of bacterial growth incubated for 18 to 24 hrs by broth microdilution method; type: functional; conditions: time 18-24 hrs
# [21] = test system: Staphylococcus epidermidis; test: Antibacterial activity against methicillin-sensitive Staphylococcus epidermidis clinical isolate 15-4 assessed as inhibition of bacterial growth incubated for 18 to 24 hrs by broth microdilution method; type: functional; conditions: time 18-24 hrs
# [22] = test system: Staphylococcus epidermidis; test: Antibacterial activity against methicillin-sensitive Staphylococcus epidermidis clinical isolate 15-3 assessed as inhibition of bacterial growth incubated for 18 to 24 hrs by broth microdilution method; type: functional; conditions: time 18-24 hrs
# [23] = test system: Enterococcus faecalis; test: Antibacterial activity against vancomycin-resistant Enterococcus faecalis ATCC 700802 assessed as inhibition of bacterial growth incubated for 18 to 24 hrs by broth microdilution method; type: functional; conditions: time 18-24 hrs
smiles,measurement,setting,value
CCn1c(=O)c(C(=O)Nc2nnc(-c3ccc(OC)cc3)s2)c(O)c2ccccc21,IC50,[1],1140 nM
same,MIC,[2],3.12 µg/mL
CCCc1nnc(NC(=O)c2c(O)c3ccccc3n(CC)c2=O)s1,MIC,[3],2 µg/mL
same,MIC,[4],4 µg/mL
same,MIC,[5],4 µg/mL
same,MIC,[6],2 µg/mL
same,MIC,[7],2 µg/mL
same,MIC,[8],4 µg/mL
same,IC50,[1],270 nM
same,MIC,[9],8 µg/mL
same,MIC,[10],4 µg/mL
same,MIC,[11],2 µg/mL
same,MIC,[12],8 µg/mL
same,MIC,[13],4 µg/mL
same,MIC,[14],4 µg/mL
same,MIC,[15],2 µg/mL
same,MIC,[16],2 µg/mL
same,MIC,[17],2 µg/mL
same,MIC,[18],4 µg/mL
same,MIC,[19],2 µg/mL
same,MIC,[20],4 µg/mL
same,MIC,[21],2 µg/mL
same,MIC,[2],0.39 µg/mL
same,MIC,[22],2 µg/mL
same,MIC,[23],8 µg/mL
CCn1c(=O)c(C(=O)Nc2nnc(-c3ccc(Cl)cc3)s2)c(O)c2ccccc21,IC50,[1],1460 nM
same,MIC,[2],12.5 µg/mL
CCCn1c(=O)c(C(=O)Nc2nncs2)c(O)c2ccccc21,IC50,[1],460 nM
same,MIC,[2],3.12 µg/mL
CCn1c(=O)c(C(=O)Nc2nnc(-c3ccc([N+](=O)[O-])cc3)s2)c(O)c2ccccc21,IC50,[1],1610 nM
same,MIC,[2],50 µg/mL
CCn1c(=O)c(C(=O)Nc2nnc(-c3ccc(N(C)C)cc3)s2)c(O)c2ccccc21,IC50,[1],2660 nM
same,MIC,[2],3.12 µg/mL
CCCCc1nnc(NC(=O)c2c(O)c3ccccc3n(CC)c2=O)s1,MIC,[3],2 µg/mL
same,MIC,[4],2 µg/mL
same,MIC,[5],2 µg/mL
same,MIC,[6],2 µg/mL
same,MIC,[7],2 µg/mL
same,MIC,[8],4 µg/mL
same,IC50,[1],990 nM
same,MIC,[9],8 µg/mL
same,MIC,[10],4 µg/mL
same,MIC,[11],2 µg/mL
same,MIC,[12],8 µg/mL
same,MIC,[13],2 µg/mL
same,MIC,[14],2 µg/mL
same,MIC,[15],2 µg/mL
same,MIC,[16],2 µg/mL
same,MIC,[17],2 µg/mL
same,MIC,[18],4 µg/mL
same,MIC,[19],2 µg/mL
same,MIC,[20],2 µg/mL
same,MIC,[21],2 µg/mL
same,MIC,[2],0.1 µg/mL
same,MIC,[22],2 µg/mL
same,MIC,[23],8 µg/mL
CCn1c(=O)c(C(=O)Nc2nnc(-c3ccccc3OC)s2)c(O)c2ccccc21,IC50,[1],760 nM
same,MIC,[2],3.12 µg/mL
CCn1c(=O)c(C(=O)Nc2nnc(C)s2)c(O)c2ccccc21,MIC,[3],2 µg/mL
same,MIC,[4],4 µg/mL
same,MIC,[5],> 64 µg/mL
same,MIC,[7],2 µg/mL
same,MIC,[8],4 µg/mL
same,IC50,[1],240 nM
same,MIC,[9],> 64 µg/mL
same,MIC,[10],> 64 µg/mL
same,MIC,[11],2 µg/mL
same,MIC,[12],> 64 µg/mL
same,MIC,[13],> 64 µg/mL
same,MIC,[14],> 64 µg/mL
same,MIC,[15],2 µg/mL
same,MIC,[16],4 µg/mL
same,MIC,[17],> 64 µg/mL
same,MIC,[18],> 64 µg/mL
same,MIC,[19],> 64 µg/mL
same,MIC,[20],> 64 µg/mL
same,MIC,[21],> 64 µg/mL
same,MIC,[2],0.78 µg/mL
same,MIC,[22],> 64 µg/mL
same,MIC,[23],> 64 µg/mL
CCn1c(=O)c(C(=O)Nc2nnc(-c3ccc(C)cc3)s2)c(O)c2ccccc21,IC50,[1],640 nM
same,MIC,[2],6.25 µg/mL
CCn1c(=O)c(C(=O)Nc2nnc(-c3ccn(C)n3)s2)c(O)c2ccccc21,IC50,[1],490 nM
same,MIC,[2],3.12 µg/mL
CCn1c(=O)c(C(=O)Nc2nnc(-c3ccccc3F)s2)c(O)c2ccccc21,IC50,[1],990 nM
same,MIC,[2],12.5 µg/mL
CCn1c(=O)c(C(=O)Nc2nnc(C3CC3)s2)c(O)c2ccccc21,IC50,[1],580 nM
same,MIC,[2],3.12 µg/mL
CCn1c(=O)c(C(=O)Nc2nnc(-c3cccnc3)s2)c(O)c2ccccc21,MIC,[3],0.5 µg/mL
same,MIC,[4],0.5 µg/mL
same,MIC,[5],1 µg/mL
same,MIC,[6],1 µg/mL
same,MIC,[7],0.5 µg/mL
same,MIC,[8],0.5 µg/mL
same,IC50,[1],240 nM
same,MIC,[9],> 64 µg/mL
same,MIC,[10],1 µg/mL
same,MIC,[11],0.5 µg/mL
same,MIC,[12],> 64 µg/mL
same,MIC,[13],> 64 µg/mL
same,MIC,[14],> 64 µg/mL
same,MIC,[15],0.5 µg/mL
same,MIC,[16],0.5 µg/mL
same,MIC,[17],> 64 µg/mL
same,MIC,[18],1 µg/mL
same,MIC,[19],1 µg/mL
same,MIC,[20],> 64 µg/mL
same,MIC,[21],1 µg/mL
same,MIC,[2],0.39 µg/mL
same,MIC,[22],2 µg/mL
same,MIC,[23],> 64 µg/mL
CCn1c(=O)c(C(=O)Nc2nnc(-c3cccs3)s2)c(O)c2ccccc21,IC50,[1],220 nM
same,MIC,[2],3.12 µg/mL
CCn1c(=O)c(C(=O)Nc2nnc(-c3ccc(F)cc3)s2)c(O)c2ccccc21,IC50,[1],2300 nM
same,MIC,[2],25 µg/mL
CCc1nnc(NC(=O)c2c(O)c3ccccc3n(CC)c2=O)s1,MIC,[3],2 µg/mL
same,MIC,[4],1 µg/mL
same,MIC,[5],2 µg/mL
same,MIC,[6],2 µg/mL
same,MIC,[7],1 µg/mL
same,MIC,[8],1 µg/mL
same,IC50,[1],450 nM
same,MIC,[9],8 µg/mL
same,MIC,[10],2 µg/mL
same,MIC,[11],2 µg/mL
same,MIC,[12],8 µg/mL
same,MIC,[13],2 µg/mL
same,MIC,[14],2 µg/mL
same,MIC,[15],2 µg/mL
same,MIC,[16],2 µg/mL
same,MIC,[17],4 µg/mL
same,MIC,[18],2 µg/mL
same,MIC,[19],2 µg/mL
same,MIC,[20],2 µg/mL
same,MIC,[21],2 µg/mL
same,MIC,[2],0.78 µg/mL
same,MIC,[22],2 µg/mL
same,MIC,[23],8 µg/mL

# — ChEMBL document CHEMBL4680144, “N-thiadiazole-4-hydroxy-2-quinolone-3-carboxamides bearing heteroaromatic rings as novel antibacterial agents: Design, synthesis, biological evaluation and target identification” (Eur J Med Chem, 2020)
